Data set [1] has as its system cortical neurones in the presence of astrocytes in culture. As to the kind of experiment: Prior cytotoxicity, microscopic observation after 48 hours. The data set is classed as cell-based. As to conditions: 100 μM, 48 hours incubation. The method, then: (§1) • Cell type: Initial culture of cortical neurones from 14 day rat embryos and initial culture of cortical astrocytes from newborn rats. • Culture medium: DMEM-Ham F12 (Invitrogen 21331020) • B27 2% (invitrogen 17504044) • L-glutamine 2 mM (Invitrogen 25030024) • Penicillin 50 UI/ml—Streptomycin 50 μg/ml (Invitrogen 15070063) • Nerve Growth Factor 10 ng/ml (NGF, Invitrogen 13290.010) • Survival medium: MEM (Invitrogen 21090022) • L-glutamine 2 mM (Invitrogen 25030024) • Penicillin 50 UI/ml—Streptomycin 50 μg/ml (Invitrogen 15070063) • Supplement N2 (Invitrogen 17502-048) 1.2 Prior Cytotoxicity • Platelets: 96 wells • Culture time: 8 days • Cells/well: cortical neurones+astrocytes • Product range: from 100 μM then ratio 3 • Replicates: 3 • Cell/product contact: 48 hours • Evaluation parameters: microscopic observation and MTT hydrolysis. • MTT: 3-(4,5-dimethylthiozol-2-yl)-2,5-diphenyltetrazolium bromide 1.3 Treatment and Analysis of the Network of Extensions Marked with Antineurofilament Antibody
A first experiment was carried out (conventional test used to measure the level of cell survival) in order to investigate the cytotoxicity of etifoxine in relation to cortical neurones in the presence of astrocytes in culture and thus to determine the maximum non-toxic concentration of etifoxine.

The test system of data set [2] is mice subjected to hypobaric hypoxia. In words: Hypobaric hypoxia in mice (survival time). It counts as in vivo, NMRI male mice. The following applies: for Percentage variation / Survival time in seconds (m ± sem): Table 4: mice, hypobaric hypoxia 160 mmHg. The method, then: 1.1 Hypobaric Hypoxia in Mice
NMRI male mice from Janvier weighing between 25 and 30 grams were used after acclimatisation in the animal house for at least 7 days (t°=22±2° C.; humidity 50±20%; feed UAR “A04” SAFE (Augy, France) and tap water ad libitum; 12 hour night and day cycle (light from 7 a.m. to 7 p.m.).
The unfasting […] were distributed at random into lots of 10.
The protocol of Nakaniski et al. (1973) Life Sciences, 13, 467-474 was adapted for the purposes of the model.
Each mouse was placed in a dessicator (hermetically sealed enclosure) in which atmospheric pressure was reduced from 760 to 160 mmHg using a water pump. This pressure reduction was carried out in one minute and caused death of the control animals in approximately 1 minute.
The survival time of the animal, which corresponded to the difference between the time to death of the mouse assessed by respiratory arrest less the time required to induce the hypoxia was then noted.
The products under investigation were administered intraperitoneally (i.p.) (0.1 ml/10 g), 30 minutes before inducing hypobaric hypoxia, or orally (0.1 ml/10 g p.o.) 1 hour before hypoxia.
Etifoxine hydrochloride was dissolved in 1% Tween 80. The potassium cyanide (Merck) was dissolved in 0.9% NaCl.
The statistical test used was a one-factor analysis of variance to determine the treated groups, which differed from the control group receiving the vehicle, at a threshold of 5%.

In data set [3] the test system is mixed cultures of rat cortical neurones and astrocytes. In words: Density of neuritic extensions marked by anti-neurofilament antibody, with or without excess glutamate. The data set is classed as cell-based. The following applies: 10 μM of glutamate (so in the source), 6 hours, compound 1, 3 and 10 μM.
The subject of data set [4] is rats subjected to histotoxic hypoxia induced by potassium cyanide. In words: KCN (i.v.) hypoxia in rats (survival time). The data set is classed as in vivo, Wistar male rats. The following applies: for Percentage variation / Survival time in seconds (m ± sem): Table 5: rats, KCN 4 mg/kg i.p. (so in the source).
For data set [5], the system named is mixed cultures of rat cortical neurones and astrocytes. In words: Density of neuritic extensions marked by anti-neurofilament antibody, with or without excess glutamate. The data set is classed as cell-based.
Excerpt: The principle of the investigation consisted of evaluating the survival of cortical neurones in co-culture with astrocytes after the application of a neurotoxic agent, excess glutamate.
Neurone survival is quantified by the density of the system of neuritic extensions marked by an anti-neurofilament antibody in the absence or presence of glutamate.
as §1
The cortical neurones were obtained from the cortex of 14 day rat embryos cultured in platelet culture medium 96 and then in a stove at 37° C. and 5% CO2 with saturated humidity. After 2 days culture astrocytes obtained from newborn rat cortex were seeded in the wells (in a ratio of 1 astrocyte to 4 neurones). After 10 days culture the mature neurones synthesised neurofilaments (structural protein specific to mature neurones); in addition to this these neurones expressed functional receptors to glutamate on their surfaces and could therefore be intoxicated.
On the 12th day of culture the medium was replaced by survival medium with or without etifoxine in 3 concentrations and the neurones were or were not intoxicated with glutamate (Sigma G1501) at a strength of 2 mM and 10 mM. Each culture condition was applied to 4 wells. The cultures were incubated for 2 periods (6 and 24 hours).
A positive control was carried out in the survival culture medium containing Nerve Growth Factor (NGF; 10 ng/ml) and basic Fibroblast Growth Factor (FGFb; 5 ng/ml) and the cells were intoxicated under the same conditions.
At the end of the two incubation periods (6 and 24 hours) the cell layers were fixed and marked with a anti-68- and 200 kD neurofilament monoclonal antibody (DAKO M0762) and then developed using a mouse anti-immunoglobulin goat antibody conjugate Alexia fluor 488 (Interchim A-11029). Controls without primary antibody were performed. All the controls were negative (no non-specific labelling). After extensive washing with PBS the preparations were observed under epi-fluorescence (Nikon Diaphot 300 microscope).
2 images were obtained for each culture well (4 wells per experimental condition) using a Nikon DXM1200F camera controlled by LUCIA 6.0 software.
All the images were obtained under the same conditions and with identical camera settings.
The densities of the networks of extensions marked with anti-neurofilament antibody were examined using LUCIA 6.0 software. Initial image processing made it possible to increase the intensity of the specific marking on the extensions. Areas in which marking was positive were binarised and the percentage marking per image was determined (marked surface area/total surface area examined).
The results (mean values±standard error with respect to the mean (SEM) were expressed as percentage marking per microscope field (n=8 measurements/culture conditions). 2-factor analysis of variance (Etifoxine and glutamate), followed by the Student Newman-Keuls multiple comparisons test was used for statistical comparison of the results. […]

`CC1(c2ccccc2)OC(N)=Nc2ccc(Cl)cc21` (stereo not shown) [desethyl-etifoxine, 2-amino-6-chloro-4-methyl-4-phenyl-4H-[3,1]benzoxazine]: the “astrocyte mortality, visual examination with a microscope” value in data set [1] is “astrocyte mortality was observed”. The Percentage variation entry in data set [2] (i.p. dose 30) is recorded as “+34%”; in data set [2] (i.p. dose 50) it was “+32%”; in data set [2] (i.p. dose 75), “+30%”; in data set [2] (p.o. dose 100), “+45%”; in data set [2] (p.o. dose 200), “+126%”; in data set [2] (p.o. dose 300), “+126%”. Further, the Percentage variation in data set [4] (compound i.p. dose 30) was −4%; in data set [4] (compound i.p. dose 50), −3%; in data set [4] (compound i.p. dose 75), “+27%”; in data set [4] (compound p.o. dose 50), “+3%”; in data set [4] (compound p.o. dose 100), “+42%”; in data set [4] (compound p.o. dose 200), “+43%”. In addition, the “Survival time in seconds (m ± sem)” value stood at 71.7 ± 4.8 s in data set [2] (i.p. dose 30); 70.7 ± 4.3 s in data set [2] (i.p. dose 50); 69.8 ± 2.7 s in data set [2] (i.p. dose 75); 61.0 ± 2.6 s in data set [2] (p.o. dose 100); 94.9 ± 9.9 s in data set [2] (p.o. dose 200); 94.8 ± 11.2 s in data set [2] (p.o. dose 300). Also, the “Survival time in seconds (m ± sem)” value worked out at 55.0 ± 1.5 s in data set [4] (compound i.p. dose 30); 55.6 ± 1.5 s in data set [4] (compound i.p. dose 50); 72.7 ± 5.5 s in data set [4] (compound i.p. dose 75); 58.8 ± 1.9 s in data set [4] (compound p.o. dose 50); 81.3 ± 3.8 s in data set [4] (compound p.o. dose 100); 81.7 ± 4.1 s in data set [4] (compound p.o. dose 200). In addition, the survival time result in data set [2] (mice, hypobaric hypoxia, oral administration from 200 mg/kg) is recorded as “significant increase in survival time”; in data set [4] (rats, KCN hypoxia, 75 mg/kg i.p.), “increased survival time in a non-significant manner”. Moreover, the anti-hypoxic activity entry in data set [2] (mice, hypobaric hypoxia, over 30 mg/kg i.p.) is reported as “showed anti-hypoxic activity”; in data set [4] (rats, KCN hypoxia, over 100 mg/kg p.o.), “showed anti-hypoxic activity”. Also, in data set [3], the “density of marked neurofilaments in the presence of glutamate” value is reported as “opposes the decrease in the density of marked neurofilaments”. The “density of marked neurofilaments” value in data set [5] (control culture medium (without glutamate), 6 hours, significant at 10 μM) is “increased the density of labelled neurofilaments in a statistically significant way”. Besides, the “density of neurofilaments in the presence of glutamate” value in data set [5] (glutamate 2 mM, 6 hours, only 10 μM of compound) is listed as “opposes the effect of glutamate”.

As for “FGF: positive control: survival culture medium containing Nerve Growth Factor (NGF; 10 ng/ml) and basic Fibroblast Growth Factor (FGFb; 5 ng/ml)”, the “density of neurofilaments in the presence of glutamate” value in data set [5] (positive control NGF 10 ng/ml + FGFb 5 ng/ml, glutamate 2 mM, 24 hours) is recorded as “opposed the effects of 2 mM of glutamate”; in data set [5] (positive control NGF 10 ng/ml + FGFb 5 ng/ml, glutamate 2 and 10 mM, 6 hours), “opposed the decrease in density of neurofilaments induced by glutamate”.

(Values after patent US8338410B2, “Neuroprotective compounds and pharmaceutical compositions comprising them” (Biocodex, priority 2005, dated 2012).)
